Test results: patent US8846951B2 (AbbVie Inc., priority 2009, dated 2014); call rule not given here
Like-named read-outs stand apart in the source and are kept apart here.

What was measured:
5HT2B receptors = molecular target: T1, 5HT2B receptors (Homo sapiens, UniProt P41595); test: Human 5-HT2B functional high throughput screening assay in CHO-K1 cells (calcium flux); format: cell-based; conditions: for EC50: CHO-K1 cells, calcium flux
T1 construct: expressed in transfected cells; host or cells: CHO-K1 cells
Description: (§1) (iii) Human 5-HT2C and 5-HT2B Functional High Throughput Screening Assays in CHO-K1 Cells
(§2) CHO-K1 cells over-expressing 5HT2C or 5HT2B receptors were grown in 1272 cm^2 flasks to 70-80% confluency in UltraCHO media (Lonza, Walkersville, Md.) supplemented with 1% dialyzed fetal bovine serum (FBS), 250 μg/mL zeocin, 100 U/mL penicillin and 100 μg/mL streptomycin, and 400 μg/mL geneticin. The cells were dissociated from the flasks using 0.05% trypsin, resuspended in Recovery™ cell culture freezing medium (Invitrogen, Carlsbad, Calif.) and stored in liquid nitrogen until use. The calcium flux experiments were done using frozen cells. The cells were diluted in media containing 1% dialyzed FBS and 100 U/mL penicillin and 100 μg/mL streptomycin and plated into 384-well poly-D-Lysine coated plates (15,000 cells/well). Then the plates were incubated overnight in a cell incubator at 37° C., 5% CO2. On the next day, the growth media was replaced with media without FBS and further incubated overnight. On day three, the changes in intracellular Ca^2+ were determined using calcium sensitive fluorescent dye, Ca4 (MDS Analytical Technologies, Sunnyvale, Calif.) by loading 15 μL of diluted dye in Hank's Balanced Salt Solution and 20 mM Hepes buffer (pH 7.4) with final concentration of 2.5 mM probenecid into the cells containing media. Then the cells were incubated at room temperature for 60 minutes in dark.
(§3) After incubation, the cell plates were transferred to FLIPR™ (MDS) and their fluorescence measurements were read at an excitation wavelength of 480 nm and an emission wavelength of 530 nm at 25° C. The baseline fluorescence was measured for the first 10 seconds and then 15 μL of 4× concentration of serotonin/test compound was added to the cells. The fluorescence intensity was captured every second for the first 1 minute followed by every 5 seconds for an additional 2 minutes. The increase in fluorescent response by a test compound was normalized to the response of serotonin and used to determine agonist activity. The concentration response of compounds was done from a starting concentration of 10 μM, 1:10 dilution across 6 wells with a final dimethyl sulfoxide concentration of 0.2% and was fitted using a 4-parameter logistic equation. The concentration at which a compound exerts half its maximal effect was named as ‘effective concentration 50’ or ‘EC50’. Emax is the maximum functional response or efficacy expressed as a percentage relative to the effect of serotonin.

5HT2C receptors = molecular target: T2, 5HT2C receptors (Homo sapiens, UniProt P28335); test: Human 5-HT2C functional high throughput screening assay in CHO-K1 cells (calcium flux); format: cell-based; parameters: expressed in transfected cells; host or cells: CHO-K1 cells; conditions: for EC50: CHO-K1 cells, calcium flux; for Emax: CHO-K1, 5-HT2C, maximum functional response as percentage relative to the effect of serotonin
T2 sequence (P28335 33-458): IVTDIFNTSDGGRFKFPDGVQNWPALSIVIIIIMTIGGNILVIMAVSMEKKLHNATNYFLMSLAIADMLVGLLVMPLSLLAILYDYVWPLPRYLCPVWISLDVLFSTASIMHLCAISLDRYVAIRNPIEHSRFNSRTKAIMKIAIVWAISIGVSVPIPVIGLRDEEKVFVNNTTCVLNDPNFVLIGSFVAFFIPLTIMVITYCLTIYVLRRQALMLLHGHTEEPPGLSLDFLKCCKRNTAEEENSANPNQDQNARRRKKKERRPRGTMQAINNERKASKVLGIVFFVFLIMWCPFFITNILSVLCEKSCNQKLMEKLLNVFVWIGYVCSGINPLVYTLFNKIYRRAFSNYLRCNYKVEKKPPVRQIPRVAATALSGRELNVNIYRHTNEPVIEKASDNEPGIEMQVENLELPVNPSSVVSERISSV
Description: as §1, §2, §3

[1] = 5-HT2B agonist activity, read-out: EC50
[2] = 5-HT2B, maximum functional response as percentage relative to the effect of serotonin
[3] = 5-HT2C agonist activity, read-out: EC50

T1 sequence (P41595 whole entry): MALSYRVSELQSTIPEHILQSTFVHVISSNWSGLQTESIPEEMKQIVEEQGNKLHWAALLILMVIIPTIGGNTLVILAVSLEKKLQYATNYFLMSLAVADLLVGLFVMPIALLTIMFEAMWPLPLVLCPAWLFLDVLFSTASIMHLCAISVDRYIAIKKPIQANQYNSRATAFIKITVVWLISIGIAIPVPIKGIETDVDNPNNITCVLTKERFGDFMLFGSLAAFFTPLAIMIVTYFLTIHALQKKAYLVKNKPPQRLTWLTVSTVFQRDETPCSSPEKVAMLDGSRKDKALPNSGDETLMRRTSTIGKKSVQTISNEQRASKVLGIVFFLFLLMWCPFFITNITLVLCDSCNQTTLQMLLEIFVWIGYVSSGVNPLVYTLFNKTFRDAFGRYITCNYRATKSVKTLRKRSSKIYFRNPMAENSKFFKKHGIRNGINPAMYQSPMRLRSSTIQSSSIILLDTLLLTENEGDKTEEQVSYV

Row | Compound | EC50 (5HT2B receptors; [1]) | Emax (5HT2B receptors; [2]) | EC50 (5HT2C receptors; [3]) | Emax (5HT2C receptors; read-out: Emax) | EC50 (5HT2B receptors; EC50, 5-HT2B agonist activity) | Emax (5HT2C receptors) | EC50 (5HT2C receptors; EC50, 5-HT2C agonist activity) | Emax (5HT2B receptors; CHO-K1)
1 | C[C@@H](Oc1ccc2c(c1)C(=O)NC[C@@H]1CNC[C@@H]21)c1ccccc1 (mixture of isomers) [Example 150, Trans-8-((R)-1-phenylethoxy)-1,2,3,3a,4,5-hexahydrobenzo[e]pyrrolo[3,4-c]azepin-6(10bH)-one] | – | inactive | – | – | > 10000 nM | > 120% | 50 nM | –
2 | C[C@H](Oc1ccc2c(c1)C(=O)NC[C@@H]1CNC[C@@H]21)c1ccccc1 (mixture of isomers) [Example 155, Trans-8-((S)-1-phenylethoxy)-1,2,3,3a,4,5-hexahydrobenzo[e]pyrrolo[3,4-c]azepin-6(10bH)-one] | – | inactive | – | – | > 10000 nM | > 120% | 50 nM | –
3 | c1cnc2c(c1)C1CNCC1CCO2 (mixture of isomers) [Example 260, 2,3,3a,4,5,10b-Hexahydro-1H-pyrrolo[3′,4′:4,5]oxepino[2,3-b]pyridine] | 3000 nM | – | 1000 nM | – | – | > 120% | – | 45%
4 | Cc1ccc(-c2ccc3c(c2)C(=O)NC[C@@H]2CN(C)C[C@@H]32)cc1 (relative stereo) [Example 82, Trans-2-methyl-8-p-tolyl-1,2,3,3a,4,5-hexahydrobenzo[e]pyrrolo[3,4-c]azepin-6(10bH)-one] | > 10000 nM | inactive | 4.2 nM | > 120% | – | – | – | –
5 | CN1C[C@H]2CNC(=O)c3cc(-c4ccc(S(C)(=O)=O)cc4)ccc3[C@@H]2C1 (relative stereo) [Example 83, Trans-2-methyl-8-(4-(methylsulfonyl)phenyl)-1,2,3,3a,4,5-hexahydrobenzo[e]pyrrolo[3,4-c]azepin-6(10bH)-one] | > 10000 nM | inactive | 200 nM | > 120% | – | – | – | –
6 | CN1C[C@H]2CNC(=O)c3cc(-c4cccc(S(C)(=O)=O)c4)ccc3[C@@H]2C1 (relative stereo) [Example 84, Trans-2-methyl-8-(3-(methylsulfonyl)phenyl)-1,2,3,3a,4,5-hexahydrobenzo[e]pyrrolo[3,4-c]azepin-6(10bH)-one] | > 10000 nM | inactive | – | > 120% | – | – | – | –
7 | CN1C[C@H]2CNC(=O)c3cc(C=Cc4ccccc4)ccc3[C@@H]2C1 (relative stereo) [Example 85, Trans-2-methyl-8-styryl-1,2,3,3a,4,5-hexahydrobenzo[e]pyrrolo[3,4-c]azepin-6(10bH)-one] | > 10000 nM | inactive | 121 nM | 100% | – | – | – | –
8 | CN1C[C@H]2CNC(=O)c3cc(CCc4ccccc4)ccc3[C@@H]2C1 (relative stereo) [Example 87, Trans-2-methyl-8-phenethyl-1,2,3,3a,4,5-hexahydrobenzo[e]pyrrolo[3,4-c]azepin-6(10bH)-one] | > 10000 nM | inactive | 38 nM | 90% | – | – | – | –

Now from value to compound, other results behind:

Row | EC50 (5HT2B receptors; [1]) | Emax (5HT2B receptors; [2]) | EC50 (5HT2C receptors; [3]) | Emax (5HT2C receptors; read-out: Emax) | Compound | EC50 (5HT2B receptors; EC50, 5-HT2B agonist activity) | Emax (5HT2C receptors) | EC50 (5HT2C receptors; EC50, 5-HT2C agonist activity) | Emax (5HT2B receptors; CHO-K1)
9 | > 10000 nM | inactive | 300 nM | > 120% | C[C@H](Cc1ccccc1)Oc1ccc2c(c1)C(=O)NC[C@@H]1CN(Cc3ccccc3)C[C@@H]21 (mixture of isomers) [Example 118, Trans-2-benzyl-8-((R)-1-phenylpropan-2-yloxy)-1,2,3,3a,4,5-hexahydrobenzo[e]pyrrolo[3,4-c]azepin-6(10bH)-one] | – | – | – | –
10 | > 10000 nM | inactive | 400 nM | 110% | C[C@@H](Cc1ccccc1)Oc1ccc2c(c1)C(=O)NC[C@@H]1CN(Cc3ccccc3)C[C@@H]21 (mixture of isomers) [Example 120, Trans-2-benzyl-8-((S)-1-phenylpropan-2-yloxy)-1,2,3,3a,4,5-hexahydrobenzo[e]pyrrolo[3,4-c]azepin-6(10bH)-one] | – | – | – | –
11 | > 10000 nM | inactive | 4 nM | 120% | C[C@@H](Cc1ccccc1)Oc1ccc2c(c1)C(=O)NC[C@@H]1CNC[C@@H]21 (mixture of isomers) [Example 149, Trans-8-((S)-1-phenylpropan-2-yloxy)-1,2,3,3a,4,5-hexahydrobenzo[e]pyrrolo[3,4-c]azepin-6(10bH)-one] | – | – | – | –
12 | > 10000 nM | inactive | 0.7 nM | 100% | CC(O)c1cc(-c2ccc3c(c2)C(=O)NC[C@H]2CN(C)C[C@H]32)ccc1F (mixture of isomers) [Example 307, (3aS,10bS)-8-[4-Fluoro-3-(1-hydroxyethyl)phenyl]-2-methyl-2,3,3a,4,5,10b-hexahydropyrrolo[3,4-d][2]benzazepin-6(1H)-one] | – | – | – | –
13 | > 10000 nM | inactive | – | > 120% | CN1C[C@H]2CNC(=O)c3cc(-c4ccc(F)cc4)ccc3[C@@H]2C1 (relative stereo) [Example 75, Trans-8-(4-fluorophenyl)-2-methyl-1,2,3,3a,4,5-hexahydrobenzo[e]pyrrolo[3,4-c]azepin-6(10bH)-one] | – | – | – | –
14 | > 10000 nM | inactive | 11 nM | > 120% | CN1C[C@H]2CNC(=O)c3cc(-c4cccc(F)c4)ccc3[C@@H]2C1 (relative stereo) [Example 76, Trans-8-(3-fluorophenyl)-2-methyl-1,2,3,3a,4,5-hexahydrobenzo[e]pyrrolo[3,4-c]azepin-6(10bH)-one] | – | – | – | –
15 | > 10000 nM | inactive | 5.8 nM | > 120% | CN1C[C@H]2CNC(=O)c3cc(-c4ccccc4F)ccc3[C@@H]2C1 (relative stereo) [Example 77, Trans-8-(2-fluorophenyl)-2-methyl-1,2,3,3a,4,5-hexahydrobenzo[e]pyrrolo[3,4-c]azepin-6(10bH)-one] | – | – | – | –
16 | > 10000 nM | inactive | 6.6 nM | > 120% | CN1C[C@H]2CNC(=O)c3cc(-c4ccc(F)c(F)c4)ccc3[C@@H]2C1 (relative stereo) [Example 78, Trans-8-(3,4-difluorophenyl)-2-methyl-1,2,3,3a,4,5-hexahydrobenzo[e]pyrrolo[3,4-c]azepin-6(10bH)-one] | – | – | – | –
17 | > 10000 nM | inactive | 30 nM | > 120% | CN1C[C@H]2CNC(=O)c3cc(-c4ccc(C(F)(F)F)cc4)ccc3[C@@H]2C1 (relative stereo) [Example 79, Trans-2-methyl-8-(4-(trifluoromethyl)phenyl)-1,2,3,3a,4,5-hexahydrobenzo[e]pyrrolo[3,4-c]azepin-6(10bH)-one] | – | – | – | –
18 | > 10000 nM | inactive | 22 nM | > 120% | CN1C[C@H]2CNC(=O)c3cc(-c4ccc5ccccc5c4)ccc3[C@@H]2C1 (relative stereo) [Example 80, Trans-2-methyl-8-(naphthalen-2-yl)-1,2,3,3a,4,5-hexahydrobenzo[e]pyrrolo[3,4-c]azepin-6(10bH)-one] | – | – | – | –
19 | > 10000 nM | inactive | 1.7 nM | > 120% | Cc1cccc(-c2ccc3c(c2)C(=O)NC[C@@H]2CN(C)C[C@@H]32)c1 (relative stereo) [Example 81, Trans-2-methyl-8-m-tolyl-1,2,3,3a,4,5-hexahydrobenzo[e]pyrrolo[3,4-c]azepin-6(10bH)-one] | – | – | – | –
